The values that follow come from patent US20120157499A1, “DELIVERY OF AN ACTIVE DRUG TO THE POSTERIOR PART OF THE EYE VIA SUBCONJUNCTIVAL OR PERIOCULAR DELIVERY OF A PRODRUG” (Allergan, Inc., priority 2003, published 2012).

A short description of data set [1]: Subconjunctival injection into a patient suffering from retinitis pigmentosa. Format: in vivo. As to conditions: 1 mg in poly(lactide-co-glycolide) microsphere suspension, injected subconjunctivally. The procedure:
A dose of tazarotene (1 mg) contained in the poly(lactide-co-glycolide) microsphere suspension of Example containing 1 is injected subconjunctivally into a patient suffering from retinitis pigmentosa.
A dose of all-trans retinyl palmitate (1 mg) contained in the poly(lactide-co-glycolide) microsphere suspension of Example containing 1 is injected subconjunctivally into a patient suffering from retinitis pigmentosa.

Data set [2] is described as follows: Subconjunctival injection into a patient suffering from proliferative vitreal retinopathy. The data set is classed as in vivo. As to conditions: 1 mg in poly(lactide-co-glycolide) microsphere suspension, injected subconjunctivally. How it is done: A dose of tazarotene (1 mg) contained in the poly(lactide-co-glycolide) microsphere suspension of Example containing 1 is injected subconjunctivally into a patient suffering from proliferative vitreal retinopathy.

Data set [3] can be described thus: Ocular disposition of tazarotene and tazarotenic acid after intraocular and subconjunctival administration of tazarotene. The data set is classed as in vivo. As to conditions: albino rabbits. How it is done:
General disposition of tazarotene and tazarotenic acid resulting from intraocular and subconjunctival administration of tazarotene was assessed. Albino rabbits were dosed via intraocular injection with 1.25 μg of tazarotene. Injection was made mid-vitreous. After dosing the vitreous, retina and aqueous humor concentrations of tazarotene and tazarotenic acid were determined at 0.5, 1, 2, 4, 8, 12 and 24 hours post dosing.
Tazarotene was also dosed in the subconjunctival space. Three dosage forms were evaluated: the tazarotene aqueous suspension described in Example 2 (50 μl of the solution, 1 mg tazarotene), tazarotene olive oil solution described in Example 3 (50 μl mg of the solution, 1 mg of tazarotene), and the tazarotene poly(lactide-co-glycolide) microsphere suspension described in Example 1. After dosing, the vitreous, retina and aqueous humor concentrations of tazarotene and tazarotenic acid were determined at 2, 8, 24, 48, 96, 168 and 336 hours post dosing (see FIGS. 1-8). […] In Table 1 the mean vitreous concentration refers to average vitreous concentration observed from zero to one hundred sixty-eight hours post dosing. The mean vitreous concentration at each time point was used to calculate the overall vitreous mean concentration over the 168 hours for a given route of administration and dosage form. […]

Data set [4] concerns the target T1, RARβ (Homo sapiens, UniProt P10826).
T1 construct: made in house
T1 sequence (P10826 1-455): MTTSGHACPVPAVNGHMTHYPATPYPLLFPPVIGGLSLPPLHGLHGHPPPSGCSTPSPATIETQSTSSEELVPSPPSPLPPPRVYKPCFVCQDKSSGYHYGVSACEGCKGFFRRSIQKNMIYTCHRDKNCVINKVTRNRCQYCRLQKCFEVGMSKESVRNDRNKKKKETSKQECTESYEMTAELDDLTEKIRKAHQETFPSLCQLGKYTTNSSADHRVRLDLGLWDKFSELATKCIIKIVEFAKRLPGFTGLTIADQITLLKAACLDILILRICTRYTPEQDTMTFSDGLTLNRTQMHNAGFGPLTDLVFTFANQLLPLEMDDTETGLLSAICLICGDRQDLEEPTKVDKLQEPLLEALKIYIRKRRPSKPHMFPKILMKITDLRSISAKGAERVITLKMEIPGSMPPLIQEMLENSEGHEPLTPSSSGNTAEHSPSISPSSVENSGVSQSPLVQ
The data set can be described thus: RARβ receptor binding assay, competition with [3H] retinoic acid. Particulars: Baculovirus-expressed receptor; Kd from IC50 by Cheng-Prussof; mean and standard deviation; read-out: receptor affinity (KD), RARβ. How it is done: (§1) The binding of tazarotene and tazarotenic acid to the retinoic acid receptor (RAR) family receptors (RARα, RARβ, RARγ) was determined as follows.
(§2) All binding assays were performed in a similar fashion. All three receptor subtypes were derived from the expressed receptor type (RARα, RARβ, and RARγ) expressed in Baculovirus. Stock solutions of the compounds were prepared as 10 mM ethanol solutions and serial dilutions carried out into 1:1 DMSO; ethanol. Assay buffers consisted of the following for all six receptor assays: 8% glycerol, 120 mM KCl, 8 mM Tris, 5 mM CHAPS 4 mM DTT and 0.24 mM PMSF, pH-7.4 @ room temperature.
(§3) All receptor binding assays were performed in the same manner. […] The amount of receptor-ligand complex was determined by liquid scintillation counting of hydroxyapitite pellet.
(§4) After correcting for non-specific binding, IC50 values were determined. […] The IC50 value was determined graphically from a loglogit plot of the data. The […] were determined by application of the Cheng-Prussof equation to the IC50 values, the labeled ligand concentration and the Kd of the labeled ligand.
(§5) The results of ligand binding assay are expressed in Kd numbers. […] Binding data for tazarotenic acid is expressed as the mean and standard deviation. […]

Data set [5] deals with T2, RARγ (Homo sapiens, UniProt P13631).
T2 construct: made in house
T2 sequence (P13631 1-454): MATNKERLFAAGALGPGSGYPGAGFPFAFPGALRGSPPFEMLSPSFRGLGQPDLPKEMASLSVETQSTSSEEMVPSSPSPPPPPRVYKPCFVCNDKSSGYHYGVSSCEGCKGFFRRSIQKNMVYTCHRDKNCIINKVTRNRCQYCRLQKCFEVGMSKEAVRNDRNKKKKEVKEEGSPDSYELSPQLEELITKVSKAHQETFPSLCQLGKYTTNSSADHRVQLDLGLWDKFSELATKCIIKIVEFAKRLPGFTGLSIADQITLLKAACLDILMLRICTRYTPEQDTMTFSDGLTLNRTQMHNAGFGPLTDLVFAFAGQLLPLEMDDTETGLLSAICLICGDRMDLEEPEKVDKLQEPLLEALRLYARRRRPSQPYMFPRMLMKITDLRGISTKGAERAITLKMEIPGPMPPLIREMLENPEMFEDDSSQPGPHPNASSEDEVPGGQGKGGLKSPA
Put plainly: RARγ receptor binding assay, competition with [3H] retinoic acid. As to conditions: Baculovirus-expressed receptor; Kd from IC50 by Cheng-Prussof; mean and standard deviation; read-out: receptor affinity (KD), RARγ. The procedure: as §1, §2, §3, §4, §5

In data set [6] the target is T3, RARα (Homo sapiens, UniProt P10276).
T3 construct: made in house
T3 sequence (P10276 1-462): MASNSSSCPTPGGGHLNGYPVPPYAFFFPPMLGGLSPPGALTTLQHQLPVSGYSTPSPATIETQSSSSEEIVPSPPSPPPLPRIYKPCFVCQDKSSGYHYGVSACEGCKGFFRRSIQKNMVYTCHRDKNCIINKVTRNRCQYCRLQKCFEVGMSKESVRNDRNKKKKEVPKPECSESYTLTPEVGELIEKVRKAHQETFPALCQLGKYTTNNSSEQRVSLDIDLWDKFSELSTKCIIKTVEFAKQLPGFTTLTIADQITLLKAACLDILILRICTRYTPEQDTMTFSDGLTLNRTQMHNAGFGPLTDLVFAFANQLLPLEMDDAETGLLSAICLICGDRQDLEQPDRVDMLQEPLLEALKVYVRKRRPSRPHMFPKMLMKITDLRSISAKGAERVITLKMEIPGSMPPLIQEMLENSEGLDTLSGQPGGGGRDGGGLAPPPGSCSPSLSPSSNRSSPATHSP
The data set can be described thus: RARα receptor binding assay, competition with [3H] retinoic acid. Particulars: Baculovirus-expressed receptor; Kd from IC50 by Cheng-Prussof; mean and standard deviation; read-out: receptor affinity (KD), RARα. How it is done: All binding assays were performed in a similar fashion.
All receptor binding assays were performed in the same manner. […] Incubations were carried out at 4° C. until equilibrium was achieved. Non-specific binding was defined as that binding remaining in the presence of 1000 nM of the appropriate unlabeled retinoic acid isomer. […] The mixture was vortexed and incubated for 10 minutes at 4° C., centrifuged and the supernatant removed. The hydroxyapitite was washed three more times with the appropriate wash buffer. The receptor-ligand complex was adsorbed by the hydroxyapitite. The amount of receptor-ligand complex was determined by liquid scintillation counting of hydroxyapitite pellet.
as §4
The results of ligand binding assay are expressed in Kd numbers.

As for `CCCCCCCCCCCCCCCC(=O)OC/C=C(C)/C=C/C=C(C)/C=C/C1=C(C)CCCC1(C)C` [all-trans retinyl palmitate], in data set [1], the “effect on vision, retinitis pigmentosa” value is “Maintenance of vision or a slowing of the progression of vision loss is observed”.

With `CCOC(=O)c1ccc(C#Cc2ccc3c(c2)C(C)(C)CCS3)nc1` [tazarotene, ethyl 6-[(4,4-dimethylthiochroman-6-yl)ethynyl]nicotinate], the “effect on vision, retinitis pigmentosa” value in data set [1] was “Maintenance of vision or a slowing of the progression of vision loss is observed”. In addition, the “effect on traction retinal detachment, proliferative vitreal retinopathy” value in data set [2] was “Traction retinal detachment is prevented or the rate of traction retinal detachment is reduced”.

As to `CC1(C)CCSc2ccc(C#Cc3ccc(C(=O)O)cn3)cc21` [tazarotenic acid, 4,4-dimethyl-6-[2′-(5″-carboxy-2″-pyridyl)-ethynyl]-thiochroman], the “maximal vitreous concentration of tazarotenic acid obtainable after direct intraocular implantation” value in data set [3] (intraocular tazarotene) stood at 10 ng/mL. Further, the “period for which concentrations were maintained at low effective levels” value in data set [3] (subconjunctival dosing of tazarotene, ocular tissues) came to 336 h. For the same molecule, the dissociation constant (Kd) (usually the constant that tells how readily two partners part at equilibrium) in data set [4] worked out at 0.164 ± 0.048 µM; in data set [5] it was 0.353 ± 0.037 µM; in data set [6] it was 0.901 ± 0.123 µM.
